Assay [1] relates to Stylonychia mytilus. The experiment in a line: Antiprotozoal activity by death of protozoa. The format is cell-based. As to conditions: death of protozoa. Here is the method:
Evaluation of the antiprotozoal activity of compound I was determined by the viability of the protozoa genus of hypotrichs Stylonychia mytilus in a nutrient medium in the presence of the studied substances. A mother liquor of compound I (10 mg/ml) was prepared in a mixture of DMSO and 96% ethanol (1:1). A 1% aqueous solution of DMSO and ethyl alcohol served as a negative control, and miramistin, benzalkonium chloride, and chlorhexidine were used as reference preparations. Then, from the mother liquors by repeated dilutions with water, working solutions were prepared corresponding to doses of 5; 10; 20; 25; 50; 75; 100 and 150 μg/ml. 10 μl of culture medium with protozoa and 10 μl of a solution of the test substance were applied to a chamber slide. The experiment was done in five replicates.
Slides were examined under a light microscope, antiprotozoal activity of substances (MIC and IC50) were determined by the death of protozoa. The Hill regression model with 5 parameters was used for the analysis.

For assay [2], the system named is E. coli CDC F-50. Kind of assay: Antiseptic activity on rat skin. The format is in vivo. As to conditions: E. coli CDC F-50 on rat skin; antiseptic concentration 0.2%; exposure time 5 min; n = 6. As to the method:
The study of the antiseptic activity of compound I in rats […] was carried out in accordance with [R 4.2.2643-10 Metody laboratornykh issledovaniy i ispytaniy mediko-profilakticheskikh dezinfektsionnykh sredstv dlya otsenki ikh effektivnosti i bezopasnosti: Rukovodstvo.—M: Federal'nyy tsentr gigiyeny i epidemiologii Rospotrebnadzora, 2010.—S. 615. R 4.2.2643-10 Laboratory methods for the study and testing of medical prophylactic disinfectants to assess their effectiveness and safety: Guide.—M.:: Federal Center for Hygiene and Epidemiology of Rospotrebnadzor, 2010.—P. 615]. Experiments were carried out on male Wistar rats with a body weight of 180-250 g.
A culture of E. coli CDC F-50, grown on dense nutrient medium for (18-20) hours, was washed with sterile isotonic chloride solution, centrifuged at 5000 rpm for 5 minutes, the supernatant was drained and cells were resuspended with sterile isotonic sodium chloride solution.
The bacterial suspension of microorganisms was brought to a turbidity of […] according to McFarland, which corresponds to a concentration of 1.5×10^7 cells/ml.
Animals were formed in 5 groups of 6 animals each. All manipulations with animals were performed under isoflurane anesthesia (4%—induction of anesthesia (2 min, 1 l/min), 2%—basis narcosis). A portion of 5×5 cm was shaved with a hair clipper on the dorsal part of the body of the animal.
A 0.25 ml microbial suspension containing 1×10^7 CFU of E. coli CDC F-50 was applied to the shaved portion of the rat back with a dispenser and distributed with a sterile disposable spatula over the entire square area. It was left for 2-3 minutes until dry.
Then, a gauze cloth (5×5 cm) was applied to the skin of rats for 5 minutes. In the experimental group, the tissue was pre-wetted with 1 ml of 0.2% solution of compound I, and in the positive control groups, the tissue was dipped in 1 ml of 0.2% miramistin, benzalkonium chloride and chlorhexidine. In the negative control group, the cloth was immersed in 1 ml of sterile saline. […]
After the time required for the cultivation of microorganisms of this species, the results were counted according to the number of colonies grown on the Petri dish. […] After counting the number of colonies grown on Petri dishes, the density of contamination per 1 cm^2 of the surface and the percentage of disinfection were calculated, taking the number of colonies removed from control surfaces and not exposed to antiseptics action as 100%. The percentage of growth inhibition of E. coli CDC F-50 was calculated by the formula: […]

Converted amounts (≈) assume the structure as drawn.

The IC50 is the concentration that inhibits the measured activity by half. By MIC is commonly meant the lowest concentration found to suppress growth. For `[H]/N=C(\N/C(=N/[H])NCCCCCCNC(=N)NC(=N)Nc1ccc(Cl)cc1)Nc1ccc(Cl)cc1` [Chlorhexidine], the IC50 in assay [1] (Hill regression, read-out: IC50 (95% confidence interval)) is 42 µg/mL (≈ 83.1 µM). The MIC in assay [1] (read-out: MIC) is 20 µg/mL (≈ 39.6 µM). Further, the “Growth inhibition rate (M ± SD)” value in assay [2] was found to be 95.7 ± 3.4%.

Source of the values: patent US11014934B2, “Antiseptic drug” (AO “TATKHIMFARMPREPARATY”, priority 2017, dated 2021).
